# Active and inactive are the calls of the source.
# Assays:
# [1] = target: E3 ubiquitin-protein ligase Mdm2 (Homo sapiens, UniProt Q00987); assay: MDM2-luc reporter signal enhancers, multi-concentration potency testing, MDM2 ubiquitin-protein ligase inhibitor program, whole-cell format, luminescence detection, 384-well microplate (AID 1394); format: functional;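 also: MDM2 E3 inhibitors raise luminescence so EC50 is for signal enhancement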
# [2] = fluconazole-exposed Candida albicans growth modulators – fluorescence, retest, confirmation (AID 2467); format: functional, cell-based
# [3] = target: Long-chain-fatty-acid--AMP ligase FadD28 (Mycobacterium tuberculosis, UniProt P9WQ59); assay: Fluorescence polarization aasay to screen for inhibitors that compete for the binding of FadD28 to a bisubstrate Measured in Biochemical System Using Plate Reader - 2147-01_Inhibitor_Dose_CherryPick_Activity.; format: functional, Mycobacterium tuberculosis H37Rv
# [4] = target: T1, Carboxy-terminal domain RNA polymerase II polypeptide A small phosphatase 1 (Homo sapiens, UniProt Q9GZU7); assay: CTDSP1 inhibitors, concentration-response, biochemical, absorbance readout, ultra-high-throughput screen actives (AID 540297); format: functional
# T1 sequence (Q9GZU7 whole entry): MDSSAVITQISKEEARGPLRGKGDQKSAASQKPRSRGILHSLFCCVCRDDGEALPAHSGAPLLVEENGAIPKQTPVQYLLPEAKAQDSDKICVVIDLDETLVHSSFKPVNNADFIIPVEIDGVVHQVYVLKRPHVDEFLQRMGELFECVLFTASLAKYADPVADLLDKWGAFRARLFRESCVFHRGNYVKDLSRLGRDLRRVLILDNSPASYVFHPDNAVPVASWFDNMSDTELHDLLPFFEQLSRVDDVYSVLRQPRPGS
# [5] = NIH-3T3 fibroblast cytotoxicity, dose response, cytotoxicity control, cell-based, fluorescence, Alamar Blue, secondary assay (AID 2327); format: functional;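 also: NIH-3T3 mouse fibroblasts cultured with fluconazole at 8 µg/mL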
# [6] = target: Bifunctional protein GlmU (Mycobacterium tuberculosis, UniProt P9WMN3); assay: Inhibitors of Mycobacterial Glucosamine-1-phosphate acetyl transferase (GlmU). Secondary screen.; parameters: species or system Mycobacterium tuberculosis H37Rv
# [7] = target: Large T antigen (Simian virus 40, UniProt P03070); format: functional, Betapolyomavirus macacae;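 also: Confirmatory-stage PubChem screen for compounds that inhibit SV40 T antigen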
# [8] = target: T2, Histone-lysine N-methyltransferase NSD2 (Homo sapiens, UniProt O96028); format: biochemical
# T2 sequence (O96028 whole entry): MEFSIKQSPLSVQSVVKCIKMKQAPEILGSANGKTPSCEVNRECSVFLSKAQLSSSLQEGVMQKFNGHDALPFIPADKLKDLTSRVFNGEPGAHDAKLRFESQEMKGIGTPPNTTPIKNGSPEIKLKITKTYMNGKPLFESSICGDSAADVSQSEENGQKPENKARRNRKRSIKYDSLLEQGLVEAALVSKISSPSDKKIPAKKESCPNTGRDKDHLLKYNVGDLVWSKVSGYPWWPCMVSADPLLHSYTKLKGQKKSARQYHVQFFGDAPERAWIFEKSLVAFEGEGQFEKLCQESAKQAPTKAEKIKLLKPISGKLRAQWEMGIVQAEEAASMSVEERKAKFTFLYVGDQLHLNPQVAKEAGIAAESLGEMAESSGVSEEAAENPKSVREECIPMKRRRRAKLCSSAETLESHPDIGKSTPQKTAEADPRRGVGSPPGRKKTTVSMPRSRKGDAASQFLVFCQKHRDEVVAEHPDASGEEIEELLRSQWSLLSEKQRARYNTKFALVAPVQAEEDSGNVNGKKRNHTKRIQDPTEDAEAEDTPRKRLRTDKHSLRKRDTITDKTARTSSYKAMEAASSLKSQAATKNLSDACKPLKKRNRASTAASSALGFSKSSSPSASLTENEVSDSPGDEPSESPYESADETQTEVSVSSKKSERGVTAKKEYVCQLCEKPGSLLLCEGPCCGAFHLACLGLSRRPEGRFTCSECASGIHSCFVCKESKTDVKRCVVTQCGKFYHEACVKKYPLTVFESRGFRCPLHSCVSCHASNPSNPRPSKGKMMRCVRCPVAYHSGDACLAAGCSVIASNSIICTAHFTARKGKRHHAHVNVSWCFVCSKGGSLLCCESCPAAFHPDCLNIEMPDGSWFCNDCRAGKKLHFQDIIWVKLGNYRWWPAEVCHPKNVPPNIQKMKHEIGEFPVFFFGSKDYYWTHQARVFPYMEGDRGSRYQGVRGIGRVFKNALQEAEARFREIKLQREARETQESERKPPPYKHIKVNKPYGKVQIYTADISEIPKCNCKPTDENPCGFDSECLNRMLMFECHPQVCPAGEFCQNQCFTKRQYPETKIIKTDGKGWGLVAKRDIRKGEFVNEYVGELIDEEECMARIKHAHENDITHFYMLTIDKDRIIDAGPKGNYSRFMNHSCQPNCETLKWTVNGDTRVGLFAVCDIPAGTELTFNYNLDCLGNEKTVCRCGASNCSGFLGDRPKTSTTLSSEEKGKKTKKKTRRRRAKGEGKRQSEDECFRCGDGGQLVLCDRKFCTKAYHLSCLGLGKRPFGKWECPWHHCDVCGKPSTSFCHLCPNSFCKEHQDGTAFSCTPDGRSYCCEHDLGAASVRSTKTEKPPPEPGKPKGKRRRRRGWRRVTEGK
# [9] = target: Genome polyprotein (dengue virus type 2, UniProt P29990); assay: flavivirus cap methylation enzyme inhibition – biochemical, confirmation dose response, primary screen (AID 588689); format: functional
# [10] = target: T3, Mannose-6-phosphate isomerase (Homo sapiens, UniProt P34949); assay: MPI enzyme activity inhibition – biochemical, fluorescence intensity, coupled assay, primary screen (AID 1209)
# T3 sequence (P34949 whole entry): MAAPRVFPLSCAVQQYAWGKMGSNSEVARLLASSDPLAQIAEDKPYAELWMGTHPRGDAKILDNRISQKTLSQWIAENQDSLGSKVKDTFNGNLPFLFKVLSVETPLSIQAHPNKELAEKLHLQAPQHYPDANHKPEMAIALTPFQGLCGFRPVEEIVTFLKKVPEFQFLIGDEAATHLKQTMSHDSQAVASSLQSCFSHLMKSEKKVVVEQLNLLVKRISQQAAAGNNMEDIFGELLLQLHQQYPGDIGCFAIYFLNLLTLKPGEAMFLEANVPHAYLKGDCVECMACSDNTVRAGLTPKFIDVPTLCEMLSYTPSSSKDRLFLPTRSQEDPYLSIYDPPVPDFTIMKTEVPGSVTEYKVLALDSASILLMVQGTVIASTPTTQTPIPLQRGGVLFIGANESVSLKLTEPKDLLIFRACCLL
# [11] = target: Cytochrome P450 3A4 (Homo sapiens, UniProt P08684); conditions: Potency;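 also: confirmatory qHTS run detecting inhibitors and substrates of CYP3A4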
# [12] = target: Cytochrome P450 2C19 (Homo sapiens, UniProt P33261); assay: qHTS Assay for Inhibitors and Substrates of Cytochrome P450 2C19. [Related pubchem assays: 410 ]; format: ADME; conditions: read-out: Potency
# [13] = target: Glyceraldehyde-3-phosphate dehydrogenase (Homo sapiens, UniProt P04406)
# [14] = target: Mitogen-activated protein kinase 10 (Homo sapiens, UniProt P53779); assay: Dose response biochemical screening assay for inhibitors of c-Jun N-Terminal Kinase 3 (JNK3). [Related pubchem assays: 746 ]
# [15] = target: T4, Alkaline phosphatase, tissue-nonspecific isozyme (Homo sapiens, UniProt P05186); assay: potency against alkaline phosphatase TNAP – biochemical, luminescent, dose response, SAR follow-up (AID 1056)
# T4 sequence (P05186 whole entry): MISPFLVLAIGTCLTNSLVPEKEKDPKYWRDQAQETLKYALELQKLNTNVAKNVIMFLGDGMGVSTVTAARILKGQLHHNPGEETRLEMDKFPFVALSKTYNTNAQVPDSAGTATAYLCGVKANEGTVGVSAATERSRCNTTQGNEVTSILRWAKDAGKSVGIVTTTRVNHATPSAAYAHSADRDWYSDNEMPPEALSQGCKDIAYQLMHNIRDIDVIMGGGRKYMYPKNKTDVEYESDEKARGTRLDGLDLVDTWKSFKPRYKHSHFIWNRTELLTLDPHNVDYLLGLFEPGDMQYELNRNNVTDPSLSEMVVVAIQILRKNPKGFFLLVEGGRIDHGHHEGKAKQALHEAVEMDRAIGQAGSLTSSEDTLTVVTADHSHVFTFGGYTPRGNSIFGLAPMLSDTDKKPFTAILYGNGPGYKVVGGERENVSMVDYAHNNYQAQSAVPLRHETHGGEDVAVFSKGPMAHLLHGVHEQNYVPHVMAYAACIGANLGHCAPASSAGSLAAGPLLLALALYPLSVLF
# [16] = target: Ephrin type-A receptor 4 (Mus musculus, UniProt Q03137); assay: EphA4 ligand-binding antagonists – biochemical, colorimetric, mouse EphA4, primary screen (AID 689); format: functional
# [17] = Luminescence Cell-Based Dose Confirmation HTS to Identify Activators of 5'UTR Stem-Loop Driven Alpha-Synuclein mRNA Translation in H4 Neuroglioblastoma Cells. [Related pubchem assays: 1829 (Project Summary), 1814 (Primary HTS)]; format: functional
# [18] = Luminescence Cell-Based Dose Response to Identify Activators of Luciferase Translation or Activity in H4-C Neuroglioblastoma Cells. [Related pubchem assays: 1829 (Project Summary), 1814 (Primary HTS)]; format: functional
# [19] = system: H4; assay: Luminescence Cell-Based Dose Response HTS to Identify Activators of 5'UTR Stem-Loop Driven Prion Protein mRNA Translation in H4 Neuroglioblastoma Cells. [Related pubchem assays: 1829 (Project Summary), 1814 (Primary HTS)]; format: functional; conditions: Homo sapiens
# [20] = Luminescence Cell-Based Dose Response to Identify Activators of 5'UTR Stem-Loop Driven Prion Protein mRNA Translation in H4-C Neuroglioblastoma Cells. [Related pubchem assays: 1829 (Project Summary), 1814 (Primary HTS)]; format: functional
# [21] = Luminescence Cell-Based Dose Response HTS to Identify Activators of Luciferase Translation or Activity in H4 […] Cells. [Related pubchem assays: 1829 (Project Summary), 1814 (Primary HTS)]; format: functional
# [22] = Luminescence Cell-Based Dose Confirmation to Identify Activators of 5'UTR Stem-Loop Driven Alpha-Synuclein mRNA Translation in H4 Neuroglioblastoma Cells. [Related pubchem assays: 1829 (Project Summary), 1814 (Primary HTS)]; format: functional
# [23] = target: Cytochrome P450 2C9 (Homo sapiens, UniProt P11712)
# [24] = CCR5-tropic HIV-1 fusion blockers – cell-based, CCR5-tropic Env, dose response (AID 2279); format: functional
# [25] = Luminescence Cell-Based Dose Retest to Confirm Inhibitors of Cancer Stem Cells. [Related pubchem assays (depositor defined):AID2717, AID2721]; format: functional; conditions: Homo sapiens
# [26] = cells
# [27] = target: T5, Oxysterols receptor LXR-beta (Homo sapiens, UniProt P55055); format: functional, cell-based;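 also: Cell-based luminescence dose-response assay of agonist activity at LXR, run as a confirmatory counterscreen to a daf-12 agonist screen; HEK293 cells with Gal4-LXR fusion and GAL4-driven luciferase reporter; agonist potency from rising luciferase signal of a Gal4-LXR reporter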
# T5 sequence (P55055 whole entry): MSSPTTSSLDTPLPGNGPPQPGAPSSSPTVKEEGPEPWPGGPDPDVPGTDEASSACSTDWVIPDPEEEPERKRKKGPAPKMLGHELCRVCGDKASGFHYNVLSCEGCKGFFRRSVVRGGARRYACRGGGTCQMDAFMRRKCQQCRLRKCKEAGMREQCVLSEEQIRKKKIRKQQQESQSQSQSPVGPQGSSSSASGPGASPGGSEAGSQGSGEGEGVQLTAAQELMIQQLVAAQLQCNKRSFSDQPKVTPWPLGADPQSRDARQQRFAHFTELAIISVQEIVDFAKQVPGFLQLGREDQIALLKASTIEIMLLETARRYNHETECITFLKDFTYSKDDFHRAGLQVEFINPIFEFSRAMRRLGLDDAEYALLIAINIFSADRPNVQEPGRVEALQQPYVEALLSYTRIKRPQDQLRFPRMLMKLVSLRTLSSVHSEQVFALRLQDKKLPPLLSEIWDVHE
# E3 ubiquitin-protein ligase Mdm2, sequence (Q00987 whole entry): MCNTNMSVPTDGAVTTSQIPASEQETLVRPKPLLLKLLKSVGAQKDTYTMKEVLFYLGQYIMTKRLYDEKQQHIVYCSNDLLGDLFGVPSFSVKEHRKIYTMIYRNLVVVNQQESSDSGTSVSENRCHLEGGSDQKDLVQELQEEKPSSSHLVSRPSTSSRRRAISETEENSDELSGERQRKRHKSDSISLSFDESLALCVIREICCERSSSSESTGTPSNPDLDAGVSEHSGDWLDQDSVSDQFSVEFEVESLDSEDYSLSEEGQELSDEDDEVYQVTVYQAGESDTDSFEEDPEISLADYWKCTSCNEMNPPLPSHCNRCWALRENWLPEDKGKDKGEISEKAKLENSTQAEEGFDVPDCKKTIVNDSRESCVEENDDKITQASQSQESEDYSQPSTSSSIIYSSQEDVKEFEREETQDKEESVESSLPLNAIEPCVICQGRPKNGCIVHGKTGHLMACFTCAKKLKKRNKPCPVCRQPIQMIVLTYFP
# Ephrin type-A receptor 4, sequence (Q03137 whole entry): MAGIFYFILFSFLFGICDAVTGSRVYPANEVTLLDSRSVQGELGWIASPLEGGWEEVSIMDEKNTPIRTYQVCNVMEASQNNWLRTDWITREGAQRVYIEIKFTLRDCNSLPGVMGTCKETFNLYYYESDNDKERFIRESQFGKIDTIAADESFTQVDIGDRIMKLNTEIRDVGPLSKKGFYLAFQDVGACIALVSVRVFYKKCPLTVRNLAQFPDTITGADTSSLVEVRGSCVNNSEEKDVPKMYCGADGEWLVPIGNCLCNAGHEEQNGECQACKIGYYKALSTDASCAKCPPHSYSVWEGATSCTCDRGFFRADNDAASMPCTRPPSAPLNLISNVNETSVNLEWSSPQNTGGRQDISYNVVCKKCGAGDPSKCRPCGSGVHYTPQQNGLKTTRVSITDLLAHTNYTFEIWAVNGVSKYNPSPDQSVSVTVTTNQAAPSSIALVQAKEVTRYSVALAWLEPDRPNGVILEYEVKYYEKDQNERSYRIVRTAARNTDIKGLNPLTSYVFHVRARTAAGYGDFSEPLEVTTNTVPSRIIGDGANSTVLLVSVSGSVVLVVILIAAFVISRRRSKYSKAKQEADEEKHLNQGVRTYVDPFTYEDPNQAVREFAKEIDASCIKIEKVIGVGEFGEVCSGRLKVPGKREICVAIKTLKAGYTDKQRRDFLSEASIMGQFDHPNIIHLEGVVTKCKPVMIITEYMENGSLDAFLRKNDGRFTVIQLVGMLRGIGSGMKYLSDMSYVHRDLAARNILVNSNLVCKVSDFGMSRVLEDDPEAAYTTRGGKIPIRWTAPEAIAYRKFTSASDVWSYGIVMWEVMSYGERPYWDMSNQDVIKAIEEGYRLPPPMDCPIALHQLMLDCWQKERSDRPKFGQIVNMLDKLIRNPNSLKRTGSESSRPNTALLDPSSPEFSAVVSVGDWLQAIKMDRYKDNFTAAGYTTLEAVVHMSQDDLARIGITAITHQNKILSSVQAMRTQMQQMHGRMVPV
# Glyceraldehyde-3-phosphate dehydrogenase, sequence (P04406 whole entry): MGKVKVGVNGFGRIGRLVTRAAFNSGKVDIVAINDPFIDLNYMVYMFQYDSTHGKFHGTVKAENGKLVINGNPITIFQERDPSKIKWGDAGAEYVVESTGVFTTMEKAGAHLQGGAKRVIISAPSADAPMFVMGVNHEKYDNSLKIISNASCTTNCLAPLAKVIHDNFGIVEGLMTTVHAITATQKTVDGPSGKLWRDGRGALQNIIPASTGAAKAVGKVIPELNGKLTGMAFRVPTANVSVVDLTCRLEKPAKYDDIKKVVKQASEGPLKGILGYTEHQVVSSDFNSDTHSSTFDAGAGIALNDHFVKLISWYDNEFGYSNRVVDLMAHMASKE
# Genome polyprotein, sequence (P29990 2492-3391 limits assumed): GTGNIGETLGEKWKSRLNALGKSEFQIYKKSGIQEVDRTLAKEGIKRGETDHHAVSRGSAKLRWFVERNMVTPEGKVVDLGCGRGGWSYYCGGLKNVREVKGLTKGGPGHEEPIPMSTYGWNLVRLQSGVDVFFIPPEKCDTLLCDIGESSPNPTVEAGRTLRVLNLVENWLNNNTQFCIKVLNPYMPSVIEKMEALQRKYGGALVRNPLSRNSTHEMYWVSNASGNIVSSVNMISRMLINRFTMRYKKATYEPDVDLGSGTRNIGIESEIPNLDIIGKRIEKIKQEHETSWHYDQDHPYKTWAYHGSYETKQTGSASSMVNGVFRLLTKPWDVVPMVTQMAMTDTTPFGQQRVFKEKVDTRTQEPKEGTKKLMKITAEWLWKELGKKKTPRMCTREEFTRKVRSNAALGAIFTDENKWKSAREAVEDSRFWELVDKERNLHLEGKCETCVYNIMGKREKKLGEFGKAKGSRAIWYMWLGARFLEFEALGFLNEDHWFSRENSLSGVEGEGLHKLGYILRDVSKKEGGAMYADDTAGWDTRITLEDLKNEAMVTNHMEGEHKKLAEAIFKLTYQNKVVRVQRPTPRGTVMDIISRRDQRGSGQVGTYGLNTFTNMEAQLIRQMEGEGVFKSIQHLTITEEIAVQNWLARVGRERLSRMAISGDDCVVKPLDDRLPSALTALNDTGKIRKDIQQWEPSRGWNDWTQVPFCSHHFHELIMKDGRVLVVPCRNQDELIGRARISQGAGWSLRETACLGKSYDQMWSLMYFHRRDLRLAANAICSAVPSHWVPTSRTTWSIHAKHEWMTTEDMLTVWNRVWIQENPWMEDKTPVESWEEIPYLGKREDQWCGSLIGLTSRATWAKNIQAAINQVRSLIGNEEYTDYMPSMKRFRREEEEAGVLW
# Mitogen-activated protein kinase 10, sequence (P53779 whole entry): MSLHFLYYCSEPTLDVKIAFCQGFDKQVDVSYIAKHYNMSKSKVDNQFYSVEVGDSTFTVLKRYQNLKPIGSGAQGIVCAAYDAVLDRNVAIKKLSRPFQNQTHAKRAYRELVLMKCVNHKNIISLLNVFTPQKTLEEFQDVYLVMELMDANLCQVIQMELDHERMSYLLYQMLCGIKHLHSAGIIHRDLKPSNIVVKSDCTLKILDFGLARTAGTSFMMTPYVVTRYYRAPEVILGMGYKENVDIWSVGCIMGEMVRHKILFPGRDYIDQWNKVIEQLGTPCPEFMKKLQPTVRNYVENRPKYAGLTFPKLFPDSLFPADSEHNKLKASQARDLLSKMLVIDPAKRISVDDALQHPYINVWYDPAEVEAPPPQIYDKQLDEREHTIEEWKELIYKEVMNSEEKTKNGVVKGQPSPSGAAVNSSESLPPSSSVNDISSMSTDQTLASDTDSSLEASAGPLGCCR
# Long-chain-fatty-acid--AMP ligase FadD28, sequence (P9WQ59 whole entry, the tested form may be a part): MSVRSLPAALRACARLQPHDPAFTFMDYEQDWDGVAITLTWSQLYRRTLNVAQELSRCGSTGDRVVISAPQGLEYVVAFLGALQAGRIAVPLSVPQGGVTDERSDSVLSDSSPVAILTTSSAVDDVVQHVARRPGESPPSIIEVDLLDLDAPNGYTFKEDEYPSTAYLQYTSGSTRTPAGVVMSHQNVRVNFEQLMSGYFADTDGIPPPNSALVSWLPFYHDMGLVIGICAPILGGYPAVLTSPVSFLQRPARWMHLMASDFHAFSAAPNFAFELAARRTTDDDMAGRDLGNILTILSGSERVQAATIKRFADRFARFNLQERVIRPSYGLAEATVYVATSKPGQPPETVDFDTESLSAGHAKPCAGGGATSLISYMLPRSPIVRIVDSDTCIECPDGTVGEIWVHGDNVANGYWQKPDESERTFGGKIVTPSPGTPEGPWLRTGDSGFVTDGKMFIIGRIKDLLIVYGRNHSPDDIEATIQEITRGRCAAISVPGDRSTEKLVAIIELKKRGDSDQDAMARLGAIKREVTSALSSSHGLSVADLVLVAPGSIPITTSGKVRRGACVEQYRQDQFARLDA
# Cytochrome P450 3A4, sequence (P08684 whole entry): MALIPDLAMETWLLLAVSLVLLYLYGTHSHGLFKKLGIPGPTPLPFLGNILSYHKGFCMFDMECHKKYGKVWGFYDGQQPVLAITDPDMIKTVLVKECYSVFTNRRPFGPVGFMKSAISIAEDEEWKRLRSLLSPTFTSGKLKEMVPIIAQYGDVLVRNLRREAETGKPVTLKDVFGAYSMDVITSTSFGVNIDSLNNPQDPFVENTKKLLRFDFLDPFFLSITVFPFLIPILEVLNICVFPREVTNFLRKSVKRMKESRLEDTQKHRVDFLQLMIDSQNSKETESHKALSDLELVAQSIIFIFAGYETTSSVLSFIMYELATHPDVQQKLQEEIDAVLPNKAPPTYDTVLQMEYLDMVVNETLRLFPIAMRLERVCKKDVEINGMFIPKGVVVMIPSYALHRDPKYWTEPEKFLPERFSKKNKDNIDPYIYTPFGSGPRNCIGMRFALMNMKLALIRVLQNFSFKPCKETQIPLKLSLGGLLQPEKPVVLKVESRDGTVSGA
# Large T antigen, sequence (P03070 whole entry): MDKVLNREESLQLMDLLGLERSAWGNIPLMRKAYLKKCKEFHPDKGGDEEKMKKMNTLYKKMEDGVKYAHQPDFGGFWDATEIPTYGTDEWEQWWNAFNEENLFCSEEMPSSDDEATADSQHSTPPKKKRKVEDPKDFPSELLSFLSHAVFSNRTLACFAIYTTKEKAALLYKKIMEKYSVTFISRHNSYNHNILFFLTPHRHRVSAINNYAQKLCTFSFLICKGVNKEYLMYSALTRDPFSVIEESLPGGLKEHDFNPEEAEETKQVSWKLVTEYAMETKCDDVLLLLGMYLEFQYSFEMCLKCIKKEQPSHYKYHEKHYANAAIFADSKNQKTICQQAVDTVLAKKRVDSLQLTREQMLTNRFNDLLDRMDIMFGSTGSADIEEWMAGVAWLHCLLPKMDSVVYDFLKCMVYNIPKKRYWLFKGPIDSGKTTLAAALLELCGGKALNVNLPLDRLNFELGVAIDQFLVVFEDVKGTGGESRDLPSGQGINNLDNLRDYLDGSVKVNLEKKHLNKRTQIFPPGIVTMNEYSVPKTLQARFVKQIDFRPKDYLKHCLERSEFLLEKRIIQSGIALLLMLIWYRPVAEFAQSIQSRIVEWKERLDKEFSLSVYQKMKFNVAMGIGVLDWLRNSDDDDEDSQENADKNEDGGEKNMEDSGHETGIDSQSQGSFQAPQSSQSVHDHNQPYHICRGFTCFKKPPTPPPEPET
structure (smiles),measurement,setting,value
Cn1c(=O)[nH]c(=O)c2c1nc(Br)n2CCCc1ccccc1,EC50,[1],46.5 µM (not active)
O=C(Nc1ccc(Cl)cc1)c1ccc(-n2cccn2)c([N+](=O)[O-])c1,EC50,[1],8.84 µM (not active)
Cc1cccc(N2NC(=O)/C(=C/c3ccc(-c4ccc(Cl)c(C(=O)O)c4)o3)C2=O)c1,EC50,[2],> 38 µM (not active)
same,AC50,[3],> 100 µM (inactive)
same,IC50,[4],3.84 µM (active)
same,EC50,[5],> 150 µM (inactive)
same,IC50,[6],122 µM (active)
same,IC50,[7],22.3 µM (active)
same,AC50,[8],> 20 µM (inactive)
same,IC50,[9],22.5 µM (active)
Cc1cccc(NC(=O)C2CC(=O)n3cnnc3S2)c1 (stereo not given),IC50,[10],> 50 µM (not active)
COC(=O)NC(c1cccs1)C(C(C)=O)C(=O)OC (stereo not given),AC50,[11],3.98 µM (inconclusive)
same,AC50,[12],3.98 µM (inconclusive)
c1ccc(-c2[nH]nc3ccccc23)cc1,IC50,[13],> 10 µM (inconclusive)
same,IC50,[14],2.34 µM (active)
same,IC50,[15],3.53 µM (active)
O=C1/C(=C\c2ccc(-c3ccccc3Cl)o2)SC(=S)N1CC1CCCO1 (stereo not given),IC50,[16],0.4 µM (active)
CC1CCN(C(=O)CSc2nc3ccccc3s2)CC1,EC50,[17],0.185 µM (active)
same,EC50,[18],0.482 µM (active)
same,EC50,[19],20.3 µM (active)
same,EC50,[20],2.07 µM (active)
same,EC50,[21],< 0.1 µM (inconclusive)
same,EC50,[22],1.69 µM (active)
COc1ccc2sc3ccccc3c(=O)c2c1OC,IC50,[16],> 100 µM (not active)
same,AC50,[23],28.2 µM (inconclusive)
COc1ccc(C(=O)/C=C/c2ccc(OCc3ccccc3)cc2)cc1CSCC(=O)O,IC50,[24],42.8 µM (active)
same,AC50,[25],5.79 µM (active)
O=C(Nc1ccccc1)Nc1cccc2nsnc12,EC50,[17],0.19 µM (active)
same,EC50,[26],> 67.5 µM (inactive)
same,EC50,[18],0.739 µM (active)
same,EC50,[19],1.37 µM (active)
same,EC50,[27],> 67.5 µM (inactive)
same,EC50,[20],0.452 µM (active)
same,EC50,[21],< 0.1 µM (inconclusive)
same,EC50,[22],> 12 µM (not active)

# Source: ChEMBL document CHEMBL1201862, “PubChem BioAssay data set” (2004)
